According to ChEMBL document CHEMBL1201862, “PubChem BioAssay data set” (2004):
Active and inactive are the calls of the source.

Assays:
Cytochrome P450 1A2 = molecular target: T1, Cytochrome P450 1A2 (Homo sapiens, UniProt P05177);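 also: PubChem cytochrome P450 panel assay, CYP1A2 panel member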
T1 sequence (P05177 whole entry): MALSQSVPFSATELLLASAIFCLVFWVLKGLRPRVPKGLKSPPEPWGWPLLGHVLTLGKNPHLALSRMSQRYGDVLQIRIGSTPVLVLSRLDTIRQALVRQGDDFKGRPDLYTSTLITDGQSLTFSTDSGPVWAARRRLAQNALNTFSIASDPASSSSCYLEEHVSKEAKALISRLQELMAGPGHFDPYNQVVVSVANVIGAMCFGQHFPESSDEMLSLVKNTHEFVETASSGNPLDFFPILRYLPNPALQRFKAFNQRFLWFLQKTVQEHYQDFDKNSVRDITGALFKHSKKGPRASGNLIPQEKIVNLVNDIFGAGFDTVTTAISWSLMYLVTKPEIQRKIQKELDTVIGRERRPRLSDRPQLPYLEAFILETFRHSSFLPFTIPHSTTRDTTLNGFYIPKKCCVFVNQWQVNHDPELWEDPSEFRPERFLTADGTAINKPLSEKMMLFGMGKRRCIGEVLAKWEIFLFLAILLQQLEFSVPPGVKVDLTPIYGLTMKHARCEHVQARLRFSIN

Cytochrome P450 3A4 = Cytochrome P450 3A4 (Homo sapiens, UniProt P08684);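 also: CYP3A4 tested as one member of a cytochrome P450 panel screen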
Cytochrome P450 3A4, sequence (P08684 whole entry): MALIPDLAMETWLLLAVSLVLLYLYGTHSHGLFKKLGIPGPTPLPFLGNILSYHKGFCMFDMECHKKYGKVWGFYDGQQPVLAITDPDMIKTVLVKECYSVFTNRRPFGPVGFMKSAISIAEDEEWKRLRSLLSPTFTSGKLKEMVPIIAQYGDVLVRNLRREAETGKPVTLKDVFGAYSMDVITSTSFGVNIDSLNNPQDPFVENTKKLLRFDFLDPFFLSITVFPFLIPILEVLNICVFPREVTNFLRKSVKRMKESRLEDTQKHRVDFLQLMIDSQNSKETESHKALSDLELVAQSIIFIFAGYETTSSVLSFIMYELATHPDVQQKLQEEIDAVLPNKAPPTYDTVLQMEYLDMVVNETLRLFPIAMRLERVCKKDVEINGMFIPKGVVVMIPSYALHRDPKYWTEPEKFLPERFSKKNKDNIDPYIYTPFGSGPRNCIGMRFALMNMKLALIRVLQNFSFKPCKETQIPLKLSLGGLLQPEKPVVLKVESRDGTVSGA

Cytochrome P450 2C9 = Cytochrome P450 2C9 (Homo sapiens, UniProt P11712)
Cytochrome P450 2C9, sequence (P11712 whole entry): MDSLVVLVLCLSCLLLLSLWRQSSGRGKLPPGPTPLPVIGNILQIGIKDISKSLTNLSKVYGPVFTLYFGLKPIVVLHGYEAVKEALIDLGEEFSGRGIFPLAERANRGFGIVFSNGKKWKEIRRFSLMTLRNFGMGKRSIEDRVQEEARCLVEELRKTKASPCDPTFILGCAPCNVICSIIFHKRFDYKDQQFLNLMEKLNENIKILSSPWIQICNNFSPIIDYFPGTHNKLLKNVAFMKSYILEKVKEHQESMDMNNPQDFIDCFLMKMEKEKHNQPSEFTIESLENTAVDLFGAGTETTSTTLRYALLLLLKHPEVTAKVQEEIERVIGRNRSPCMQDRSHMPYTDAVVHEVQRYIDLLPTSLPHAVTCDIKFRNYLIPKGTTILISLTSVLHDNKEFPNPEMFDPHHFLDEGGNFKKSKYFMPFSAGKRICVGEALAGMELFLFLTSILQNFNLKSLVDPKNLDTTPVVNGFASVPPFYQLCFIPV

Leucine aminopeptidase = molecular target: T2, Leucine aminopeptidase (Plasmodium falciparum 3D7, UniProt Q8IL11); test: P. falciparum M17LAP inhibitors, primary screen, biochemical, fluorogenic H-Leu-NHMec substrate, 1536-well (AID 1619); type: functional
T2 sequence (Q8IL11 whole entry): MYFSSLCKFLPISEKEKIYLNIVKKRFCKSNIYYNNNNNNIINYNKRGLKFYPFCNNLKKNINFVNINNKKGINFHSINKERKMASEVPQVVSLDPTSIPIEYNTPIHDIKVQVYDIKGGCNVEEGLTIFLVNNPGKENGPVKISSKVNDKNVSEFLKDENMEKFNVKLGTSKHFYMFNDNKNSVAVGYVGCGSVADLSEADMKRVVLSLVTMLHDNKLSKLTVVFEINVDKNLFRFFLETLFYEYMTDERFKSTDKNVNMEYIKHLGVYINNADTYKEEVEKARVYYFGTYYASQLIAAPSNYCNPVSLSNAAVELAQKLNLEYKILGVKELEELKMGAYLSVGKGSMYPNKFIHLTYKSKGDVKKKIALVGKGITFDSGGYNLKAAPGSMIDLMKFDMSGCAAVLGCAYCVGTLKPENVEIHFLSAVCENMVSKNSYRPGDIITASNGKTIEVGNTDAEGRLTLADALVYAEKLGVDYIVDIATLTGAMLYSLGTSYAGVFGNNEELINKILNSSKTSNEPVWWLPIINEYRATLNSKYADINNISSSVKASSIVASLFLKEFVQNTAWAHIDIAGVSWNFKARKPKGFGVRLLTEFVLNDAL

Estrogen receptor = molecular target: T3, Estrogen receptor (Homo sapiens, UniProt P03372);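 also: potency for inhibiting coactivator peptide recruitment to the receptor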
T3 sequence (P03372 whole entry): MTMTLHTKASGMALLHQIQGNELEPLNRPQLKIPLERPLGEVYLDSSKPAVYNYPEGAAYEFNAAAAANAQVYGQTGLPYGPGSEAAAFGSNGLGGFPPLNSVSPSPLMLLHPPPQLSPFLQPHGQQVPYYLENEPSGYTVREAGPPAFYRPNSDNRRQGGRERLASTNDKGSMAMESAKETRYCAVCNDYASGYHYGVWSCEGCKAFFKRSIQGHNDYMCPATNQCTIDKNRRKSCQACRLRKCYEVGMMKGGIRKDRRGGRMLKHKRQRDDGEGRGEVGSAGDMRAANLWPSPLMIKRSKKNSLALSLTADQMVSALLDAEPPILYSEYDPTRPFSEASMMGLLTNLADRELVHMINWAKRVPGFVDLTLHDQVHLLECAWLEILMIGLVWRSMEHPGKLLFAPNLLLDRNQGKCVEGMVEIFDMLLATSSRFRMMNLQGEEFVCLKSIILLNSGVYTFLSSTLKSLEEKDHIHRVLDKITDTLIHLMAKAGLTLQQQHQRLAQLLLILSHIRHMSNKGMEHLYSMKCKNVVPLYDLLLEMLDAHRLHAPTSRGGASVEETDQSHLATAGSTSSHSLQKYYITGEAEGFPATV

HEK293 = test: EBV LMP1 TES2 canonical NF-kB signalling blockers – cell-based, HEK293, luciferase, cherry-pick, dose response (AID 588343); type: functional; conditions: Homo sapiens
[1] = molecular target: Eukaryotic translation initiation factor 4E (Mus musculus, UniProt P63073); test: blockers of eIF4G binding by eIF4E – biochemical, TR-FRET, dose response (AID 855); type: functional;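 also: potency for disrupting eIF4E binding to eIF4GI seen as loss of FRET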
Eukaryotic translation initiation factor 4E, sequence (P63073 whole entry): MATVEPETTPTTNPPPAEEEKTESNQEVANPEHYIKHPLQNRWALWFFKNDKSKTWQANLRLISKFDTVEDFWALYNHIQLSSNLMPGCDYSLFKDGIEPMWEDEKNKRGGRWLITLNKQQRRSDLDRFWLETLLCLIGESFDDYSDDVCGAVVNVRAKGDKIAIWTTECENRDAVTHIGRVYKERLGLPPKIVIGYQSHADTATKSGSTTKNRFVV

[2] = HIV-1 Vif–A3G interaction blockers – biochemical, TR-FRET, GST-Vif 1-94, biotin-A3G peptide, dose response retest, primary screen (AID 1117319); type: functional;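 also: TR-FRET signal of purified GST-Vif binding a biotinylated A3G peptide; inhibitors lower the FRET signal by blocking Vif and A3G binding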
[3] = viability inhibitors of stage V gametocytes – luminescence, dose response (AID 1117278); type: functional, cell-based;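 also: gametocytes exposed to compound for 24 hours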
[4] = viability loss in human Jurkat cells – cell-based, luminescence, cytotoxicity control for P. falciparum gametocyte viability project, dose response (AID 1117277); type: functional;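 also: potency reflects loss of cellular ATP meaning fewer viable cells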
HeLa = test: viability loss in HeLa cells – cell-based, 24 h, cherry-picked samples, cytotoxicity control, dose response (AID 504726); type: functional; conditions: Homo sapiens;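 also: potency for cytotoxicity as loss of luminescence signal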
[5] = molecular target: DNA damage-inducible transcript 3 protein (Mus musculus, UniProt P35639); type: functional, Cricetulus griseus
DNA damage-inducible transcript 3 protein, sequence (P35639 whole entry): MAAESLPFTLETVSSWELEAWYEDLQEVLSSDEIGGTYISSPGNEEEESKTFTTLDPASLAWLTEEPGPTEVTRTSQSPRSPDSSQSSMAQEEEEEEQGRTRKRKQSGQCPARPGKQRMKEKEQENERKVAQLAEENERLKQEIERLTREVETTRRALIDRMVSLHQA

X-box-binding protein 1 = molecular target: T4, X-box-binding protein 1 (Homo sapiens, UniProt P17861); type: functional, Cricetulus griseus;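 also: confirmatory dose-response counter-screen serving a CHOP assay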
T4 sequence (P17861 whole entry): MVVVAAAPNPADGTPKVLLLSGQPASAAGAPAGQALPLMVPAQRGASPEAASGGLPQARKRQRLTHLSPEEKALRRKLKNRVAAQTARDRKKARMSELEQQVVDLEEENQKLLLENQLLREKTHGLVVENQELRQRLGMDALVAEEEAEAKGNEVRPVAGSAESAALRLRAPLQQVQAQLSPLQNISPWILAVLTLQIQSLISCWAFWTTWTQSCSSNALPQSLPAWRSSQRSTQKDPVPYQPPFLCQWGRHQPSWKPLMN

[6] = molecular target: T5, Heat shock factor protein 1 (Mus musculus, UniProt P38532); test: decrease of HSF1-responsive luciferase luminescence – cell-based, NIH3T3, dose retest, confirmation (AID 2382); type: functional;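 also: NIH3T3 fibroblasts with HSF1-driven luciferase reporter stressed by proteasome inhibitor MG132; luminescence from HSF1-driven luciferase expression after 8 hours of MG132 stress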
T5 sequence (P38532 whole entry): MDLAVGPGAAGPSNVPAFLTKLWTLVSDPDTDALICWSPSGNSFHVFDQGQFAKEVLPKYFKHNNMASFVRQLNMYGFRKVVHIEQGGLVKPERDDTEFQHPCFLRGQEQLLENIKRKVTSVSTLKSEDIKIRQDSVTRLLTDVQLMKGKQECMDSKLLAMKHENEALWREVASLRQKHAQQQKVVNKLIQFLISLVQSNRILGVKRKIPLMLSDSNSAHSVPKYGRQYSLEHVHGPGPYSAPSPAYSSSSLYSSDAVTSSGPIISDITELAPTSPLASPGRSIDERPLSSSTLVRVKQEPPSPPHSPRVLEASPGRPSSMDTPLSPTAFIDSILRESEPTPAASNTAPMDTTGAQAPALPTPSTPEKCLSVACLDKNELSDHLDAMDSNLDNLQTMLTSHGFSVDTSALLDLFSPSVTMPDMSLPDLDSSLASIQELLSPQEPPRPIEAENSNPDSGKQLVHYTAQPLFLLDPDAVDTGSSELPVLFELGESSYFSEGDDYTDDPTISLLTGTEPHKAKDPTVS

Protein Tat = molecular target: T6, Protein Tat (Human immunodeficiency virus type 1 group M subtype B (isolate HXB2)(HIV-1), UniProt P04608); type: functional;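 also: tat binding to TAR RNA read out by fluorescence polarization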
T6 sequence (P04608 whole entry): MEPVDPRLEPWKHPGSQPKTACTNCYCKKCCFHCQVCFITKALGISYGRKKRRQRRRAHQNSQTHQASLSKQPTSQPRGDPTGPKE

[7] = molecular target: Endoplasmic reticulum aminopeptidase 1 (Homo sapiens, UniProt Q9NZ08); test: inhibition of human ERAP1 enzyme activity – biochemical, cherry-pick, set 2, plate reader, dose response (AID 743314)
Endoplasmic reticulum aminopeptidase 1, sequence (Q9NZ08 whole entry): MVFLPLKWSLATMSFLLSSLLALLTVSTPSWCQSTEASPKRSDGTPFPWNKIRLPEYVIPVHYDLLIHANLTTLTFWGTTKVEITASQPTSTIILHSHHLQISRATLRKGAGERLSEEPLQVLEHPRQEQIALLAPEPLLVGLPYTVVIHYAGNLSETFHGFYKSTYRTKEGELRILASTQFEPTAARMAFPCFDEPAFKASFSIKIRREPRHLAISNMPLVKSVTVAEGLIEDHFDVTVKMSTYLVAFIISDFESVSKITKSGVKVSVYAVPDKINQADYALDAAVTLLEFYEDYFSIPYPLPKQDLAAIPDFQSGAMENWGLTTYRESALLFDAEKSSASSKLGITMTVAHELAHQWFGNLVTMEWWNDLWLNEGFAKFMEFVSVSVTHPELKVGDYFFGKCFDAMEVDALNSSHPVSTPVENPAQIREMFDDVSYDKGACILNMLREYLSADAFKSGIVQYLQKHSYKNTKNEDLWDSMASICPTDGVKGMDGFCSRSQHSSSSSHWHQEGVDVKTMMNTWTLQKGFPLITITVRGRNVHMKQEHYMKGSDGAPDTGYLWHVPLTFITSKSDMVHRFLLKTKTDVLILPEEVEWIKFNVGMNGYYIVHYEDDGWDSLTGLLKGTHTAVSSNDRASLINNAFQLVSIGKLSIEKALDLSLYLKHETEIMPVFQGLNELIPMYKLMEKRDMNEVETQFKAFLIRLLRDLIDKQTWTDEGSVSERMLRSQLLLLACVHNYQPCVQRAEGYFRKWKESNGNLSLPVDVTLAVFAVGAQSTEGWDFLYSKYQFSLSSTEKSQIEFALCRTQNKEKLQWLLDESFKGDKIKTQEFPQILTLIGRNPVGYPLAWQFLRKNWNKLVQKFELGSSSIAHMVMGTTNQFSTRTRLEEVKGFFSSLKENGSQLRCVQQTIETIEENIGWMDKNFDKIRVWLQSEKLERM

[8] = viability loss in THP-1 monocytes – THP-1 cells, cytotoxicity control for Vif-APOBEC3G degradation inhibitor project, dose response (AID 1117359); type: functional; conditions: THP-1
[9] = Vero E6 cell cytotoxicity, dose response, cytotoxicity control for non-replicating M. tuberculosis project, secondary assay (AID 492998); type: functional, VeroE6; conditions: Vero C1008
[10] = THP-1 cell cytotoxicity, dose response, cytotoxicity control for non-replicating M. tuberculosis project (AID 489025); type: functional
[11] = HepG2 cell cytotoxicity, dose response, cytotoxicity control for non-replicating M. tuberculosis project (AID 489018); type: functional; conditions: Mycobacterium tuberculosis
cells = type: functional
[12] = molecular target: Induced myeloid leukemia cell differentiation protein Mcl-1 (Homo sapiens, UniProt Q07820); type: functional
Induced myeloid leukemia cell differentiation protein Mcl-1, sequence (Q07820 whole entry): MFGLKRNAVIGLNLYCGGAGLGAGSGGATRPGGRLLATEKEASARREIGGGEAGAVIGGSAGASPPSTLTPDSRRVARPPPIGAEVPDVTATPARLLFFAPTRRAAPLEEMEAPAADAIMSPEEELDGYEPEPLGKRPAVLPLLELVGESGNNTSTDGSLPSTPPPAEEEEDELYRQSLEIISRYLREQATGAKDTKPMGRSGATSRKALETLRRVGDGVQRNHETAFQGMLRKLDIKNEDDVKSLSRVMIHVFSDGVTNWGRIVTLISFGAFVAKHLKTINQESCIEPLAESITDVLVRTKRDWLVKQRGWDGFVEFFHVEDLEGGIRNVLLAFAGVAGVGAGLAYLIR

[13] = viability of uninfected HEp-2 cells – cell-based, HTS, cytotoxicity control for RSV inhibitor project, dose response (AID 2410); type: functional; conditions: human respiratory syncytial virus

For `O=C(O)c1ccccc1-c1ccccc1C(=O)Nc1ccc2c(c1)[nH]c(=O)c1ccccc12`, the AC50 (Cytochrome P450 1A2) was 0.00316 µM (inconclusive), the AC50 (Cytochrome P450 3A4) was 3.98 µM (inconclusive) and the AC50 (Cytochrome P450 2C9) was 3.16 µM (inconclusive). The IC50 (Leucine aminopeptidase) was 38.8 µM (active).
With `O=C(Nc1ccc2c(c1)nc1n2CCSC1)c1ccco1` the IC50 (Estrogen receptor) was 14.5 µM (active) and the AC50 (HEK293) was 3.52 µM (active).
In the case of `CCOc1cc(C2c3c(C)n[nH]c3C(=O)N2c2ccc(C)cc2)ccc1O` (stereo unspecified), the IC50 [1] is reported as > 64 µM (inactive).
For `CC1CCN(C(=S)c2ccccc2O)CC1`, the IC50 [1] was > 64 µM (inactive).
In the case of `COc1ccc(N(CC(=O)NCc2ccccc2C)S(=O)(=O)c2ccc(C)cc2)cc1OC`, the IC50 [2] is reported as > 100 µM (active).
For `COCCn1cnc2c1c(=O)n(CC(=O)Nc1cc(C)on1)c(=O)n2Cc1ccccc1`, the IC50 [3] was > 109 µM (inactive) and the IC50 [4] was > 83.3 µM (inactive).
With `Cc1ccc(OCC(=O)O/N=C(\N)Cc2ccc([N+](=O)[O-])cc2)cc1C` the AC50 (HeLa) was > 350 µM (inactive).
In the case of `Cc1cc(NC(=O)CSc2nc3cc4c(cc3c(=O)n2CCc2ccccc2)OCO4)no1`, the “Absolute IC50 (CHOP)” value [5] is reported as 10 µM and the “Absolute IC50 (XBP1)” value (X-box-binding protein 1) is reported as 10 µM.
With `CCCn1nc(C(=O)OCC(=O)c2ccc3c(c2)NC(=O)CO3)c2ccccc2c1=O` the IC50 (Estrogen receptor) was 37.9 µM (not active).
For `O=C(COC(=O)Cc1c(Cl)cccc1Cl)Nc1ccc(OC(F)(F)F)cc1`, the “Absolute IC50 (XBP1)” value (X-box-binding protein 1) was 10 µM and the EC50 [6] was > 195 µM (not active).
With `COCCCNC(=O)c1cccn2c(=O)c3cc4ccccc4cc3nc12` the IC50 (Protein Tat) was > 100 µM (active).
For `CCCc1cc(=O)oc2c(CN3CCN(C)CC3)c(O)ccc12`, the AC50 [7] was 7.87 µM (active).
With `COc1ccc(CN2C(=O)c3ccccc3C2C(=O)NCc2cccnc2)c(OC)c1` (stereo unspecified) the IC50 [2] was > 100 µM (active).
With `S=C(Nc1ccc2c(c1)OCCO2)Nc1ccc2c(c1)OCO2` the IC50 [2] was > 100 µM (active), the CC50 [8] was > 40 µM (active) and the IC50 (Protein Tat) was > 100 µM (active).
With `O=C(Nc1nnc(C2CC2)o1)c1ccc(S(=O)(=O)N2CCCCC2)cc1` the CC50 [9] was 11.5 µM (active), the CC50 [10] was > 40 µM (active) and the CC50 [11] was > 20 µM (active). The IC50 (cells) was 10.3 µM (active).
For `CC(C)=CCc1c(O)c(CC=C(C)C)c2c(c1O)C(=O)CC(c1ccc(O)cc1)O2` (stereo unspecified), the “Absolute IC50 (XBP1)” value (X-box-binding protein 1) was 10 µM.
With `Cc1ccc(OCc2ccc(C(=O)O)o2)c([N+](=O)[O-])c1` the IC50 (Leucine aminopeptidase) was 31.8 µM (active).
For `Cc1cc(=O)oc2cc(NS(=O)(=O)c3ccc(F)cc3)ccc12`, the AC50 [7] was 8.8 µM (active).
In the case of `CCCn1c(O)nnc1SCC(=O)c1cc(C)ccc1C`, the IC50 [2] is reported as > 100 µM (active).
With `Cc1c(N)cc(S(=O)(=O)O)cc1NC(=O)c1cccc([N+](=O)[O-])c1` the AC50 (HeLa) was 56.4 µM (active).
With `COc1cccc(OCCNc2ccc([N+](=O)[O-])cn2)c1` the AC50 (HeLa) was 49.3 µM (active).
With `Cc1cc(S(=O)(=O)NC2CCN(Cc3ccccc3)CC2)c(C)cc1Cl` the AC50 (HeLa) was 52.3 µM (active).
With `CCOc1ccc(S(=O)(=O)N2CCCC2)cc1` the IC50 [3] was > 109 µM (inactive) and the IC50 [4] was > 83.3 µM (inactive).
In the case of `Cc1ccc(S(=O)(=O)N2CCN(C(=O)CCC(=O)NCCc3ccc(F)cc3)CC2)cc1`, the IC50 [3] is reported as > 109 µM (inactive) and the IC50 [4] is reported as > 83.3 µM (inactive).
With `Cc1ccc(/C=c2\sc3nc(-c4ccco4)nn3c2=O)o1` the IC50 [12] was 4.61 µM (active) and the IC50 (Estrogen receptor) was 13.9 µM (active).
In the case of `Cc1ccc(NCC(=O)N/N=C/c2cccc(Oc3ccccc3)c2)cc1`, the “Absolute IC50 (CHOP)” value [5] is reported as 10 µM and the “Absolute IC50 (XBP1)” value (X-box-binding protein 1) is reported as under 10 µM.
With `CC(C)CCNCC(O)CON=C1c2ccccc2-c2ccccc21` (stereo unspecified) the CC50 [10] was 13.8 µM (active), the CC50 [13] was 12.6 µM (active) and the CC50 [11] was 14.4 µM (active). For the same compound, the IC50 (cells) was 16.8 µM (active).
